Target: Glycine receptor (Rattus norvegicus, UniProt P22771+P24524+P07727+P20781); note: in other assays of this panel Not Active means under 50% inhibition at 10 µM
Assay type: cell membranes, Wistar, Spinal cord, Membrane
Conditions: not given

SMILES	IC50
C=C1/C(=C\C=C2/CCC[C@]3(C)[C@@H]([C@H](C)CCCC(C)C)CC[C@@H]23)C[C@@H](O)C[C@@H]1O [ALFACALCIDOL]	Not Active
C[C@@H]1CC[C@H]2[C@@H](C)C(=O)O[C@@H]3O[C@@]4(C)CC[C@@H]1[C@]32OO4 [ARTEMISININ]	Not Active
CCC[C@@H]1C[C@@H](C(=O)N[C@@H]([C@H]2O[C@H](SC)[C@H](O)[C@@H](O)[C@H]2O)[C@H](C)Cl)N(C)C1 [CLINDAMYCIN]	Not Active
Cc1cn[nH]c1 [FOMEPIZOLE]	Not Active
Cc1cnc(C(=O)NCCc2ccc(S(=O)(=O)NC(=O)NC3CCCCC3)cc2)cn1 [GLIPIZIDE]	Not Active
COc1ccccc1OCC(O)CO (configuration not stated) [GUAIFENESIN]	Not Active
C/C=C\c1ccc(O)c(OC)c1 [ISOEUGENOL]	Not Active

Target: T1, Cytochrome P450 2A6 (Homo sapiens, UniProt P11509); note: in other assays of this panel Not Active means under 50% inhibition at 10 µM
T1 sequence (P11509 whole entry): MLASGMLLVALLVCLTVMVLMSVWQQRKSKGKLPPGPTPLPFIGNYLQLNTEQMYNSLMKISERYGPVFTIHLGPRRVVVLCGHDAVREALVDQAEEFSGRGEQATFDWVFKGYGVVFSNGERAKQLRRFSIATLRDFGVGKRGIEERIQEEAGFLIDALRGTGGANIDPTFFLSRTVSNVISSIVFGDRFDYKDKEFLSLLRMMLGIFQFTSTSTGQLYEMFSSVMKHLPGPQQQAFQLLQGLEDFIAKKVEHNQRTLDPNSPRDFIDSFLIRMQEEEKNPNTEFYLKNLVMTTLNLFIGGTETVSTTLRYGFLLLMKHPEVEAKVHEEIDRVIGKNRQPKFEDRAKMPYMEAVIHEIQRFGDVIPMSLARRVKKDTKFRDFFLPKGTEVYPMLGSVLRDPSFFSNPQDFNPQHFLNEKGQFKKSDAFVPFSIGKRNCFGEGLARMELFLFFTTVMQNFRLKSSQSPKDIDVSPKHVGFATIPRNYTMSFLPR
Conditions: bti-tn-5b1-4

SMILES	IC50	Ki
C=C1/C(=C\C=C2/CCC[C@]3(C)[C@@H]([C@H](C)CCCC(C)C)CC[C@@H]23)C[C@@H](O)C[C@@H]1O [ALFACALCIDOL]	Not Active	Not Active

Target: Sodium-dependent dopamine transporter (Homo sapiens, UniProt Q01959)
Assay: DRUGMATRIX: Dopamine Transporter radioligand binding (ligand: [125I] RTI-55)
Assay type: cell membranes, CHO-K1, Membrane
Conditions: cho-k1; Not Active = under 50% inhibition at 10 µM

Sequence of Sodium-dependent dopamine transporter (Q01959 whole entry): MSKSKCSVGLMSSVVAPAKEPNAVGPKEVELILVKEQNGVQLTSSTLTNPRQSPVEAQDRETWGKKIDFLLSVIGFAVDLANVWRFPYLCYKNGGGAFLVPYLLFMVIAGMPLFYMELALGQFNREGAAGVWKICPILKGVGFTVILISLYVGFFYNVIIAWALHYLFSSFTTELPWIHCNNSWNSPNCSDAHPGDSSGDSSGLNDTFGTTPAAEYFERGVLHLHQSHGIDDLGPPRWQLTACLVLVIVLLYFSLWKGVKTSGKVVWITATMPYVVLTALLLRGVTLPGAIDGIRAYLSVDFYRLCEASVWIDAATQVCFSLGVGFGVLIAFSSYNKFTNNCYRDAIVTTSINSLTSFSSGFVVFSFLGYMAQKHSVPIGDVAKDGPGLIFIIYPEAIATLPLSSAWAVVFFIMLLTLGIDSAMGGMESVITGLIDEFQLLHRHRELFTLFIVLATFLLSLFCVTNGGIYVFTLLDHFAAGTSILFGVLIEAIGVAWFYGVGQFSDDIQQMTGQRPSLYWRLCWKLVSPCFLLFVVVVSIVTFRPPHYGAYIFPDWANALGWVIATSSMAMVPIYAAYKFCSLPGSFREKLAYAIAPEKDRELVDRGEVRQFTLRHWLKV

SMILES	IC50
C=C1/C(=C\C=C2/CCC[C@]3(C)[C@@H]([C@H](C)CCCC(C)C)CC[C@@H]23)C[C@@H](O)C[C@@H]1O [ALFACALCIDOL]	Not Active
C[C@@H]1CC[C@H]2[C@@H](C)C(=O)O[C@@H]3O[C@@]4(C)CC[C@@H]1[C@]32OO4 [ARTEMISININ]	Not Active
CCC[C@@H]1C[C@@H](C(=O)N[C@@H]([C@H]2O[C@H](SC)[C@H](O)[C@@H](O)[C@H]2O)[C@H](C)Cl)N(C)C1 [CLINDAMYCIN]	Not Active
Cc1cn[nH]c1 [FOMEPIZOLE]	Not Active
Cc1cnc(C(=O)NCCc2ccc(S(=O)(=O)NC(=O)NC3CCCCC3)cc2)cn1 [GLIPIZIDE]	Not Active
COc1ccccc1OCC(O)CO (configuration not stated) [GUAIFENESIN]	Not Active
C/C=C\c1ccc(O)c(OC)c1 [ISOEUGENOL]	Not Active

Target: Histamine H2 receptor (Homo sapiens, UniProt P25021); note: in other assays of this panel Not Active means under 50% inhibition at 10 µM
Assay type: cell membranes, CHO-K1, Membrane
Conditions: cho-k1

Sequence of Histamine H2 receptor (P25021 whole entry): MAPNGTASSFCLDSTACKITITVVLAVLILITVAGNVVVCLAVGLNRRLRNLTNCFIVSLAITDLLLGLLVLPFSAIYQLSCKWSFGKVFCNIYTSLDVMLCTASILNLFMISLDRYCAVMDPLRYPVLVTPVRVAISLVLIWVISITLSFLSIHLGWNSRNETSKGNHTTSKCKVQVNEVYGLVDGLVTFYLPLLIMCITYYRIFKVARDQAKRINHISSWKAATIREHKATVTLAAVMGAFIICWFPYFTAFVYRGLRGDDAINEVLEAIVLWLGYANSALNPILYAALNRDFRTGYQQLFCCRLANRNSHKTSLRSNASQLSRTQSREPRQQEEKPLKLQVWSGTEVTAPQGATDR

SMILES	IC50
C=C1/C(=C\C=C2/CCC[C@]3(C)[C@@H]([C@H](C)CCCC(C)C)CC[C@@H]23)C[C@@H](O)C[C@@H]1O [ALFACALCIDOL]	Not Active
C[C@@H]1CC[C@H]2[C@@H](C)C(=O)O[C@@H]3O[C@@]4(C)CC[C@@H]1[C@]32OO4 [ARTEMISININ]	Not Active
CCC[C@@H]1C[C@@H](C(=O)N[C@@H]([C@H]2O[C@H](SC)[C@H](O)[C@@H](O)[C@H]2O)[C@H](C)Cl)N(C)C1 [CLINDAMYCIN]	Not Active
Cc1cn[nH]c1 [FOMEPIZOLE]	Not Active
Cc1cnc(C(=O)NCCc2ccc(S(=O)(=O)NC(=O)NC3CCCCC3)cc2)cn1 [GLIPIZIDE]	Not Active
COc1ccccc1OCC(O)CO (configuration not stated) [GUAIFENESIN]	Not Active
C/C=C\c1ccc(O)c(OC)c1 [ISOEUGENOL]	Not Active

System: not listed separately
Assay: DRUGMATRIX: GABAA, Flunitrazepam, Central radioligand binding (ligand: [3H] Flunitrazepam)
Assay type: cell membranes, Rattus norvegicus, Wistar, Brain, Membrane
Conditions: Not Active = under 50% inhibition at 10 µM

SMILES	IC50	Ki
C=C1/C(=C\C=C2/CCC[C@]3(C)[C@@H]([C@H](C)CCCC(C)C)CC[C@@H]23)C[C@@H](O)C[C@@H]1O [ALFACALCIDOL]	Not Active	Not Active
C[C@@H]1CC[C@H]2[C@@H](C)C(=O)O[C@@H]3O[C@@]4(C)CC[C@@H]1[C@]32OO4 [ARTEMISININ]	Not Active	Not Active
CCC[C@@H]1C[C@@H](C(=O)N[C@@H]([C@H]2O[C@H](SC)[C@H](O)[C@@H](O)[C@H]2O)[C@H](C)Cl)N(C)C1 [CLINDAMYCIN]	Not Active	Not Active
Cc1cn[nH]c1 [FOMEPIZOLE]	Not Active	Not Active
Cc1cnc(C(=O)NCCc2ccc(S(=O)(=O)NC(=O)NC3CCCCC3)cc2)cn1 [GLIPIZIDE]	Not Active	Not Active
COc1ccccc1OCC(O)CO (configuration not stated) [GUAIFENESIN]	Not Active	Not Active
C/C=C\c1ccc(O)c(OC)c1 [ISOEUGENOL]	Not Active	Not Active

Target: Protein kinase C alpha type (Homo sapiens, UniProt P17252);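 note: inhibition of PKCalpha kinase activity measured in an enzyme assay with histone as the phosphorylation substrate; in other assays of this panel Not Active means under 50% inhibition at 10 µM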
Assay type: cell-based
Conditions: sf9

SMILES	IC50
C=C1/C(=C\C=C2/CCC[C@]3(C)[C@@H]([C@H](C)CCCC(C)C)CC[C@@H]23)C[C@@H](O)C[C@@H]1O [ALFACALCIDOL]	Not Active
C[C@@H]1CC[C@H]2[C@@H](C)C(=O)O[C@@H]3O[C@@]4(C)CC[C@@H]1[C@]32OO4 [ARTEMISININ]	Not Active
CCC[C@@H]1C[C@@H](C(=O)N[C@@H]([C@H]2O[C@H](SC)[C@H](O)[C@@H](O)[C@H]2O)[C@H](C)Cl)N(C)C1 [CLINDAMYCIN]	Not Active
Cc1cn[nH]c1 [FOMEPIZOLE]	Not Active
Cc1cnc(C(=O)NCCc2ccc(S(=O)(=O)NC(=O)NC3CCCCC3)cc2)cn1 [GLIPIZIDE]	Not Active
COc1ccccc1OCC(O)CO (configuration not stated) [GUAIFENESIN]	Not Active
C/C=C\c1ccc(O)c(OC)c1 [ISOEUGENOL]	Not Active

Target: T2, C-C chemokine receptor type 4 (Homo sapiens, UniProt P51679); note: in other assays of this panel Not Active means under 50% inhibition at 10 µM
T2 sequence (P51679 whole entry): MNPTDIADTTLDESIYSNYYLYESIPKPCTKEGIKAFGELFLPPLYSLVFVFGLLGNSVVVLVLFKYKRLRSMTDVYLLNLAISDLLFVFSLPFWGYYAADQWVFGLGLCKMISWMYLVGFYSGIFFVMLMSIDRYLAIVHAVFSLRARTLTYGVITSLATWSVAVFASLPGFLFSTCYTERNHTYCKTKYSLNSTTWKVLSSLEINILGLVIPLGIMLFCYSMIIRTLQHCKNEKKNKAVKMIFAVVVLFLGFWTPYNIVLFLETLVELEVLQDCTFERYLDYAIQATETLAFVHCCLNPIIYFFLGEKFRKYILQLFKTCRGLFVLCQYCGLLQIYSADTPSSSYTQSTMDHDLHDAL
Assay type: cell membranes, Membrane
Conditions: chem-1

SMILES	IC50
C=C1/C(=C\C=C2/CCC[C@]3(C)[C@@H]([C@H](C)CCCC(C)C)CC[C@@H]23)C[C@@H](O)C[C@@H]1O [ALFACALCIDOL]	Not Active
C[C@@H]1CC[C@H]2[C@@H](C)C(=O)O[C@@H]3O[C@@]4(C)CC[C@@H]1[C@]32OO4 [ARTEMISININ]	Not Active
CCC[C@@H]1C[C@@H](C(=O)N[C@@H]([C@H]2O[C@H](SC)[C@H](O)[C@@H](O)[C@H]2O)[C@H](C)Cl)N(C)C1 [CLINDAMYCIN]	Not Active
Cc1cn[nH]c1 [FOMEPIZOLE]	Not Active
Cc1cnc(C(=O)NCCc2ccc(S(=O)(=O)NC(=O)NC3CCCCC3)cc2)cn1 [GLIPIZIDE]	Not Active
COc1ccccc1OCC(O)CO (configuration not stated) [GUAIFENESIN]	Not Active
C/C=C\c1ccc(O)c(OC)c1 [ISOEUGENOL]	Not Active

Target: T3, Receptor-type tyrosine-protein phosphatase C (Homo sapiens, UniProt P08575)
T3 sequence (P08575 whole entry): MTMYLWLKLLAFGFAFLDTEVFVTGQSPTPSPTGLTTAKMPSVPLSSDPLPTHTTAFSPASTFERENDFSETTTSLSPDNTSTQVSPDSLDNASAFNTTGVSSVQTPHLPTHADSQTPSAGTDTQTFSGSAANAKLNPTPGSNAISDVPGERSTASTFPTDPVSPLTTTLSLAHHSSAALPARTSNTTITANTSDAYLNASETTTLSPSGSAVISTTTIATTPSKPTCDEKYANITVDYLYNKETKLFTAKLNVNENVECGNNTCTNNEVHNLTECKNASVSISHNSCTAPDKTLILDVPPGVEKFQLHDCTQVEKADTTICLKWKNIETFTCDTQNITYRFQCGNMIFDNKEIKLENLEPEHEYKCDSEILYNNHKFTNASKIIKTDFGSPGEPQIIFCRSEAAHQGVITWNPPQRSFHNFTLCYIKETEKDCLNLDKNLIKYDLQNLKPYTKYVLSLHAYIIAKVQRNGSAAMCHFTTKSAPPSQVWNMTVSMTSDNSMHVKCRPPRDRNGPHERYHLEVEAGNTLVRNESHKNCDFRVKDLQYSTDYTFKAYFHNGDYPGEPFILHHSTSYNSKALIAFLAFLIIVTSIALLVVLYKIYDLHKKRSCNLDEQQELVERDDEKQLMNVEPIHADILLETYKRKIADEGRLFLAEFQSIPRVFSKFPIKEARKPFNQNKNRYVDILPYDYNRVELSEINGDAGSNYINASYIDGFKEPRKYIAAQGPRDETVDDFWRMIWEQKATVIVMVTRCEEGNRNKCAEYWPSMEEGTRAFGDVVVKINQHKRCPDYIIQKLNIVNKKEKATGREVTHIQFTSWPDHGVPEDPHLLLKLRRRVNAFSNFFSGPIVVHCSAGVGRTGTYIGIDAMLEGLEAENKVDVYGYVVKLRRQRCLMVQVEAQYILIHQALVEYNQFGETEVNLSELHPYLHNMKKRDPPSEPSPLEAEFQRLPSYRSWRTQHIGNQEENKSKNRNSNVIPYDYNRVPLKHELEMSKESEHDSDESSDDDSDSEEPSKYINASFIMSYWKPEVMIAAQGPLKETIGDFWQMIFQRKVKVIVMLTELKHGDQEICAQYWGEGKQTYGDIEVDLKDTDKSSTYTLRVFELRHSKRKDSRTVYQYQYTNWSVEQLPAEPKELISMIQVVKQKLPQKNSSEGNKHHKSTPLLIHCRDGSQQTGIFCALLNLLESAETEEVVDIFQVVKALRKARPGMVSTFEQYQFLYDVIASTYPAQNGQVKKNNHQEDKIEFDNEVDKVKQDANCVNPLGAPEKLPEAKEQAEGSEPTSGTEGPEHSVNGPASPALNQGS
Parameters: species or system Escherichia coli
Conditions: not given

SMILES	IC50
C=C1/C(=C\C=C2/CCC[C@]3(C)[C@@H]([C@H](C)CCCC(C)C)CC[C@@H]23)C[C@@H](O)C[C@@H]1O [ALFACALCIDOL]	Not Active
C[C@@H]1CC[C@H]2[C@@H](C)C(=O)O[C@@H]3O[C@@]4(C)CC[C@@H]1[C@]32OO4 [ARTEMISININ]	Not Active
CCC[C@@H]1C[C@@H](C(=O)N[C@@H]([C@H]2O[C@H](SC)[C@H](O)[C@@H](O)[C@H]2O)[C@H](C)Cl)N(C)C1 [CLINDAMYCIN]	Not Active
Cc1cn[nH]c1 [FOMEPIZOLE]	Not Active
COc1ccccc1OCC(O)CO (configuration not stated) [GUAIFENESIN]	Not Active
C/C=C\c1ccc(O)c(OC)c1 [ISOEUGENOL]	Not Active

Source: ChEMBL document CHEMBL1909046, “DrugMatrix in vitro pharmacology data”
